Test results taken from ChEMBL document CHEMBL1201862, “PubChem BioAssay data set” (2004).
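These data come from cells grown in 96-well plates and exposed to compound for 48 hours at five concentrations. At the GI50, growth is halved.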 The source made the active and inactive calls. No stated cut-off is given here; in the data, active = GI50 up to about 1.1 µM and inactive = higher.

Legend:
Assay in all cases: NCI tumour cell line growth inhibition, 48 h
786-0 = system: 786-0
A498 = system: A498
A549 = system: A549
ACHN = system: ACHN
BT-549 = system: BT-549
CAKI-1 = system: CAKI-1
CCRF-CEM = system: CCRF-CEM
COLO 205 = system: COLO 205
DU-145 = system: DU-145
EKVX = system: EKVX
HCT-116 = system: HCT-116
HCT-15 = system: HCT-15
HL-60 = system: HL-60
HOP-62 = system: HOP-62
HOP-92 = system: HOP-92
HT-29 = system: HT-29
Hs-578T = system: Hs-578T
IGROV-1 = system: IGROV-1
K562 = system: K562
KM12 = system: KM12
LOX IMVI = system: LOX IMVI
M14 = system: M14
MCF7 = system: MCF7
MDA-MB-231 = system: MDA-MB-231
MDA-MB-435 = system: MDA-MB-435
MDA-N = system: MDA-N
MOLT-4 = system: MOLT-4
Malme-3M = system: Malme-3M
NCI-H226 = system: NCI-H226
NCI-H23 = system: NCI-H23
NCI-H460 = system: NCI-H460
NCI-H522 = system: NCI-H522
NCI/ADR-RES = system: NCI/ADR-RES
OVCAR-3 = system: OVCAR-3
OVCAR-4 = system: OVCAR-4
OVCAR-5 = system: OVCAR-5
OVCAR-8 = system: OVCAR-8
PC-3 = system: PC-3
RPMI-8226 = system: RPMI-8226
RXF 393 = system: RXF 393
SF-268 = system: SF-268
SF-295 = system: SF-295
SF-539 = system: SF-539
SK-MEL-28 = system: SK-MEL-28
SK-MEL-2 = system: SK-MEL-2
SK-MEL-5 = system: SK-MEL-5
SK-OV-3 = system: SK-OV-3
SN12C = system: SN12C
SNB-19 = system: SNB-19
SNB-75 = system: SNB-75
SR = system: SR
SW-620 = system: SW-620
T47D = system: T47D
TK-10 = system: TK-10
U-251 = system: U-251
UACC-257 = system: UACC-257
UACC-62 = system: UACC-62
UO-31 = system: UO-31
HCC 2998 = system: HCC 2998

CC(CC(=O)O)C(C(=O)O)C(=O)O (centres undefined)
GI50 (786-0): > 100 µM (inactive)
GI50 (A498): > 100 µM (inactive)
GI50 (A549): > 100 µM (inactive)
GI50 (ACHN): > 100 µM (inactive)
GI50 (BT-549): > 100 µM (inactive)
GI50 (CAKI-1): > 100 µM (inactive)
GI50 (CCRF-CEM): > 100 µM (inactive)
GI50 (COLO 205): > 100 µM (inactive)
GI50 (DU-145): > 100 µM (inactive)
GI50 (EKVX): > 100 µM (inactive)
GI50 (HCT-116): > 100 µM (inactive)
GI50 (HCT-15): > 100 µM
GI50 (HL-60): > 100 µM (inactive)
GI50 (HOP-62): > 100 µM (inactive)
GI50 (HOP-92): > 100 µM (inactive)
GI50 (HT-29): > 100 µM (inactive)
GI50 (Hs-578T): > 100 µM (inactive)
GI50 (IGROV-1): > 100 µM (inactive)
GI50 (K562): > 100 µM (inactive)
GI50 (KM12): > 100 µM (inactive)
GI50 (LOX IMVI): > 100 µM (inactive)
GI50 (M14): > 100 µM (inactive)
GI50 (MCF7): > 100 µM (inactive)
GI50 (MDA-MB-231): > 100 µM (inactive)
GI50 (MDA-MB-435): > 100 µM (inactive)
GI50 (MDA-N): > 100 µM (inactive)
GI50 (MOLT-4): > 100 µM (inactive)
GI50 (Malme-3M): > 100 µM (inactive)
GI50 (NCI-H226): > 100 µM (inactive)
GI50 (NCI-H23): > 100 µM (inactive)
GI50 (NCI-H460): > 100 µM (inactive)
GI50 (NCI-H522): > 100 µM (inactive)
GI50 (NCI/ADR-RES): > 100 µM (inactive)
GI50 (OVCAR-3): > 100 µM (inactive)
GI50 (OVCAR-4): > 100 µM (inactive)
GI50 (OVCAR-5): > 100 µM (inactive)
GI50 (OVCAR-8): > 100 µM (inactive)
GI50 (PC-3): > 100 µM (inactive)
GI50 (RPMI-8226): > 100 µM (inactive)
GI50 (RXF 393): > 100 µM (inactive)
GI50 (SF-268): > 100 µM (inactive)
GI50 (SF-295): > 100 µM (inactive)
GI50 (SF-539): > 100 µM (inactive)
GI50 (SK-MEL-28): > 100 µM (inactive)
GI50 (SK-MEL-2): > 100 µM (inactive)
GI50 (SK-MEL-5): > 100 µM (inactive)
GI50 (SK-OV-3): > 100 µM (inactive)
GI50 (SN12C): > 100 µM (inactive)
GI50 (SNB-19): > 100 µM (inactive)
GI50 (SNB-75): > 100 µM (inactive)
GI50 (SR): > 100 µM (inactive)
GI50 (SW-620): > 100 µM (inactive)
GI50 (T47D): > 100 µM (inactive)
GI50 (TK-10): > 100 µM (inactive)
GI50 (U-251): > 100 µM (inactive)
GI50 (UACC-257): > 100 µM (inactive)
GI50 (UACC-62): > 100 µM (inactive)
GI50 (UO-31): > 100 µM (inactive)

O=C(CNC(c1ccccc1)(c1ccccc1)c1ccccc1)NC1CCCCC1NC(=O)CNC(c1ccccc1)(c1ccccc1)c1ccccc1 (centres undefined)
GI50 (786-0): 85.7 µM (inactive)
GI50 (A498): > 100 µM (inactive)
GI50 (A549): > 100 µM (inactive)
GI50 (ACHN): > 100 µM (inactive)
GI50 (BT-549): > 100 µM (inactive)
GI50 (CAKI-1): > 100 µM (inactive)
GI50 (CCRF-CEM): > 100 µM (inactive)
GI50 (COLO 205): > 100 µM (inactive)
GI50 (DU-145): > 100 µM (inactive)
GI50 (EKVX): 2.99 µM (inactive)
GI50 (HCC 2998): > 100 µM (inactive)
GI50 (HCT-116): > 100 µM (inactive)
GI50 (HCT-15): > 100 µM
GI50 (HL-60): > 100 µM (inactive)
GI50 (HOP-62): 27.8 µM (inactive)
GI50 (HOP-92): 12 µM (inactive)
GI50 (HT-29): > 100 µM (inactive)
GI50 (Hs-578T): 32.9 µM (inactive)
GI50 (IGROV-1): > 100 µM (inactive)
GI50 (K562): > 100 µM (inactive)
GI50 (KM12): > 100 µM (inactive)
GI50 (LOX IMVI): > 100 µM (inactive)
GI50 (MCF7): > 100 µM (inactive)
GI50 (MDA-MB-231): > 100 µM (inactive)
GI50 (MDA-MB-435): > 100 µM (inactive)
GI50 (MDA-N): > 100 µM (inactive)
GI50 (MOLT-4): > 100 µM (inactive)
GI50 (Malme-3M): > 100 µM (inactive)
GI50 (NCI-H23): > 100 µM (inactive)
GI50 (NCI-H460): > 100 µM (inactive)
GI50 (NCI-H522): > 100 µM (inactive)
GI50 (NCI/ADR-RES): > 100 µM (inactive)
GI50 (OVCAR-3): > 100 µM (inactive)
GI50 (OVCAR-4): > 100 µM (inactive)
GI50 (OVCAR-5): > 100 µM (inactive)
GI50 (OVCAR-8): > 100 µM (inactive)
GI50 (PC-3): > 100 µM (inactive)
GI50 (RPMI-8226): > 100 µM (inactive)
GI50 (SF-268): 24.2 µM (inactive)
GI50 (SF-295): > 100 µM (inactive)
GI50 (SF-539): > 100 µM (inactive)
GI50 (SK-MEL-28): > 100 µM (inactive)
GI50 (SK-MEL-2): > 100 µM (inactive)
GI50 (SK-MEL-5): > 100 µM (inactive)
GI50 (SK-OV-3): > 100 µM (inactive)
GI50 (SN12C): > 100 µM (inactive)
GI50 (SNB-19): > 100 µM (inactive)
GI50 (SR): > 100 µM (inactive)
GI50 (SW-620): > 100 µM (inactive)
GI50 (T47D): > 100 µM (inactive)
GI50 (TK-10): > 100 µM (inactive)
GI50 (U-251): 43 µM (inactive)
GI50 (UACC-257): > 100 µM (inactive)
GI50 (UACC-62): > 100 µM (inactive)
GI50 (UO-31): > 100 µM (inactive)

CCOC(=O)C(Cc1ccc(N(CCCl)CCCl)cc1)NC(=O)C(Cc1ccccc1)NC=O (centres undefined)
GI50 (786-0): 0.116 µM (active)
GI50 (A498): 0.273 µM (active)
GI50 (A549): 0.431 µM (active)
GI50 (ACHN): 0.00959 µM (active)
GI50 (BT-549): 0.437 µM (active)
GI50 (CAKI-1): 0.0385 µM (active)
GI50 (CCRF-CEM): 0.0526 µM (active)
GI50 (COLO 205): 0.197 µM (active)
GI50 (DU-145): 0.139 µM (active)
GI50 (EKVX): 0.332 µM (active)
GI50 (HCC 2998): 0.0186 µM (active)
GI50 (HCT-116): 0.286 µM (active)
GI50 (HCT-15): 0.29 µM
GI50 (HL-60): 0.0638 µM (active)
GI50 (HOP-62): 0.274 µM (active)
GI50 (HOP-92): 0.126 µM (active)
GI50 (HT-29): 0.142 µM (active)
GI50 (Hs-578T): 0.388 µM (active)
GI50 (IGROV-1): 0.0492 µM (active)
GI50 (K562): 0.188 µM (active)
GI50 (KM12): 0.48 µM (active)
GI50 (LOX IMVI): 0.0713 µM (active)
GI50 (M14): 0.102 µM (active)
GI50 (MCF7): 0.143 µM (active)
GI50 (MDA-MB-231): 0.262 µM (active)
GI50 (MDA-MB-435): 0.263 µM (active)
GI50 (MDA-N): 0.24 µM (active)
GI50 (MOLT-4): 0.0289 µM (active)
GI50 (Malme-3M): 0.109 µM (active)
GI50 (NCI-H23): 0.00906 µM (active)
GI50 (NCI-H460): 0.261 µM (active)
GI50 (NCI-H522): 0.117 µM (active)
GI50 (NCI/ADR-RES): 0.338 µM (active)
GI50 (OVCAR-3): 0.147 µM (active)
GI50 (OVCAR-4): 0.0208 µM (active)
GI50 (OVCAR-5): 0.337 µM (active)
GI50 (OVCAR-8): 0.258 µM (active)
GI50 (PC-3): 0.27 µM (active)
GI50 (RPMI-8226): 0.187 µM (active)
GI50 (RXF 393): 0.0614 µM (active)
GI50 (SF-268): 0.0968 µM (active)
GI50 (SF-295): 0.257 µM (active)
GI50 (SF-539): 0.139 µM (active)
GI50 (SK-MEL-2): 0.161 µM (active)
GI50 (SK-MEL-5): 0.219 µM (active)
GI50 (SK-OV-3): 0.475 µM (active)
GI50 (SN12C): 0.156 µM (active)
GI50 (SNB-19): 0.421 µM (active)
GI50 (SR): 0.00811 µM (active)
GI50 (SW-620): 0.184 µM (active)
GI50 (T47D): 0.092 µM (active)
GI50 (TK-10): 0.157 µM (active)
GI50 (U-251): 0.205 µM (active)
GI50 (UACC-257): 0.24 µM (active)
GI50 (UACC-62): 0.094 µM (active)
GI50 (UO-31): 0.0689 µM (active)
